Data: patent US7273864B2, “Compositions and methods for inducing osteogenesis” (The Scripps Research Institute, priority 2002, dated 2007)

What was measured:
C3H10T1/2 cells [1] = assay: Morphology of C3H10T1/2 cells under light microscopy; assay type: cell-based, mouse; conditions: 2 μM for 4 days
Experimental: C3H10T1/2 cells were treated with DMSO (1%) and Compound A (purmorphamine) (2 μM) for 4 days. C2C12 cells were treated with DMSO (1%), Compound A (purmorphamine) (2 μM) or BMP-4 (300 ng/mL) for 4 days. The morphology of the cells was examined under light microscopy.

C3H10T1/2 cells [2] = assay: Histochemical staining for endogenous alkaline phosphatase expression in C3H10T1/2 cells; assay type: cell-based, mouse; conditions: 4 days; for cells stained positive for ALP: Compound A 2 μM, BMP-4 300 ng/mL
Experimental: Histochemical Staining for Endogenous Alkaline Phosphatase Expression: C3H10T1/2 cells were seeded in 96-well assay plates (Corning) at a density of 10,000 cells/well, and treated with 300 ng/mL of BMP-4, 1% DMSO, 2 μM of Compound A, or 100 ng/mL of BMP and 1 μM of Compound A for 4 days. The cells were then washed 3 times with 200 μL PBS and fixed by a 15 minute incubation in a 10% formalin solution (Sigma). The fixed cells were washed again with 3 times with 200 μL PBS and stained with the Alkaline Phosphatase Staining Kit 86R (Sigma Diagnostics) using the manufacturer's protocol. The images were taken on a Nikon Eclipse TE300 microscope, and ALP positive cells were counted manually from the images.
C3H10T1/2 cells were treated with DMSO (a), 300 ng/mL of BMP-4 (b), 2 μM of Compound A (c), and 100 ng/mL of BMP and 1 μM of Compound A (d) for 4 days and stained for ALP activity. ALP positive cells were stained red and the cell nuclei were stained blue.

3T3-L1 cells = assay: Alkaline phosphatase (ALP) activity in 3T3-L1 pre-adipocyte cells; assay type: cell-based, mouse
Experimental: Alkaline Phosphatase Assay: C3H10T1/2 cells were expanded in T175 flasks; cells at the 13th passage were detached by trypsin/EDTA and diluted in the growth media. The resulting cell suspension was then plated into black clear bottom 384-well plates (Greiner) with 2500 cells/well in 100 μL growth media using a Multi-drop™ liquid delivery system (Titertek Instruments). After an overnight incubation, cells were attached to the bottom of the wells. A stock solution of Compound A in DMSO (500 nL) was delivered into corresponding well using a Mini Trak™ multiposition dispenser system (Packard BioScience) to make the final concentration of 5 μM of each compound. Cells were then incubated at 37° C. in 5% CO2. […] After 5 min, 10 μL of alkaline phosphatase substrate solution (1 mM in pH 10 buffer, 2′-[2′-benzothiazoyl]-6′-hydroxybenzothiazole phosphate (Promega) was added to each well. After a 15 minute incubation at room temperature, the plates were read on an Acquest high-throughput plate reader (Molecular Devices) using the manufacturer's protocol.
(§1) 3T3-L1 cells, C2C12 cells, and MC-3T3E1 cells were treated with DMSO (control), BMP-4(300 ng/mL), BMP-4 (100 ng/mL) and Compound A (1 μM), or 0.1 μM, 0.5 μM, 1 μM, 5 μM, or 10 μM Compound A. ALP activity was measured as described in Example 1 above, after four days of treatment.

[3] = tested on: alkaline phosphatase, collagen type I and osteoponin; assay: Morphological and transcriptional analysis of osteogenesis (FIG. 5); assay type: cell-based
[4] = tested on: Cbfa1/Runx2 gene promoter; assay: Cbfa1/Runx2 reporter gene assay in 3T3-L1 cells; assay type: cell-based, mouse; conditions: 3T3-L1 pre-adipocyte cells
From the text: (§2) Cbfa1/Runx2 Reporter Gene Assay: The murine Cbfa1/Runx2 gene promoter region (1818 bp) was amplified by PCR from mouse genomic DNA library (Clontech) using the following primers: The resulting PCR product was inserted into Topo cloning vector (Invitrogen), amplified and sequenced. The resulting plasmid was digested with restriction enzymes Mlu and XhoI (New England Biolab) and the 1.8 kb fragment was inserted into the Mlu/XhoI cloning sites in pGL3-BV luciferase reporter vector (Promega). For transient transfection assays, cells were seeded in a 6-well plate at a density of 30,000 cells/well in 2 mL of growth medium. After an overnight incubation, the cells reached 80% confluency. Plasmid DNA (1 μg) was transfected into cells using 3 μL of Fugene 6 transfection reagent (Roche) using the manufacturer's protocol. After 8 hours, the transfected cells were plated into 96-well assay plates (Corning) and treated with 300 ng/mL of recombinant human bone morphogenetic protein 4 (BMP-4) (Sigma), 1% DMSO (Sigma) or different concentrations of Compound A (dissolved in DMSO). The cells were incubated for 4 days, then the luciferase activity in the cells was assayed using the Bright-Glo luciferase assay kit (Promega) using the manufacturer's protocol. Luminescence signals were detected by Acquest AD (Molecular Devices) plate reader. […]

[5] = tested on: Cbfa1/Runx2 gene promoter; assay: Cbfa1/Runx2 reporter gene assay, transiently transfected C3H10T1/2 cells; assay type: cell-based, mouse
From the text: as §2

[6] = tested on: Cbfa1/Runx2 gene promoter; assay: Cbfa1/Runx2 reporter gene assay in C2C12 cells; assay type: cell-based, mouse
From the text: as §2

[7] = tested on: Cbfa1/Runx2 gene promoter; assay: Cbfa1/Runx2 reporter gene assay, stably transfected MC3T3-E1 cells; assay type: cell-based, mouse
From the text: as §2, with “For transient transfection assays, cells were seeded in a 6-well plate at a density of 30,000 cells/well in 2 mL of growth medium.” left out, “reader. Due to the low transfection efficiency of MC3T3-E1 cells, the Cbfa1/Runx2 reporter assay was carried out with stably transfected MC3T3-E1 cells.” for “reader.”

C3H10T1/2 cells [8] = assay: Alkaline phosphatase (ALP) enzymatic assay in C3H10T1/2 cells; assay type: cell-based, mouse
Experimental: Alkaline Phosphatase Assay: C3H10T1/2 cells were expanded in T175 flasks; cells at the 13th passage were detached by trypsin/EDTA and diluted in the growth media. The resulting cell suspension was then plated into black clear bottom 384-well plates (Greiner) with 2500 cells/well in 100 μL growth media using a Multi-dropTM liquid delivery system (Titertek Instruments). After an overnight incubation, cells were attached to the bottom of the wells. A stock solution of Compound A in DMSO (500 nL) was delivered into corresponding well using a Mini TrakTM multiposition dispenser system (Packard BioScience) to make the final concentration of 5 μM of each compound. Cells were then incubated at 37° C. in 5% CO2. After 4 days, the media was removed and 10 μL of Passive Lysis Buffer (Promega) was added into each well. After 5 min, 10 μL of alkaline phosphatase substrate solution (1 mM in pH 10 buffer, 2'-[2'-benzothiazoyl]-6'-hydroxybenzothiazole phosphate (Promega) was added to each well. After a 15 minute incubation at room temperature, the plates were read on an Acquest high-throughput plate reader (Molecular Devices) using the manufacturer's protocol. C3H10T1/2 cells were treated with DMSO (control), BMP-4(300 ng/mL), BMP-4 (100 ng/mL) and Compound A (1 μM), or 0.5 μ[…], or 10 μM Compound A. Alkaline phosphatase (ALP) activity was measured as described in Example 2 above, after two, four, and six days of treatment.

MC3T3-E1 cells = assay: Terminal differentiation of MC3T3-E1 pre-osteoblast cells; assay type: cell-based, mouse
From the text: Mouse MC3T3-E1 cells are progenitor cells committed to an osteoblast lineage. […] Since MC3T3-E1 cells already have high levels of endogenous Cbfa1/Runx2, slight up-regulation of this gene may be sufficient to promote terminal differentiation (see, e.g., Xiao et al., J. Cell. Biochem. 74:596 (1999) and Wang et al., J. Bone. Miner. Res. 14:893 (1999)). The change of Cbfa1/Runx2 reporter activity in stably transfected MC3T3-E1 cells is not dramatic when treated with Compound A.
as §1

| expression of alkaline phosphatase, collagen type I and osteoponin ([3]; FIG. 5A) | EC50 (C3H10T1/2 cells [8]; Mus musculus, C3H 10T1/2, ALP enzymatic assay, C3H10T1/2 cells) | Molecule | morphology of the cells (C3H10T1/2 cells [1]) | cells stained positive for ALP (C3H10T1/2 cells [2]) | increase in ALP level (3T3-L1 cells; optimal concentration of 5 μM) | DNA microarray analysis ([3]; FIG. 5B) | Cbfa1/Runx2 expression [4] | Cbfa1 gene upregulation ([5]; C3H10T1/2 cells, FIG. 4B) | increase in Cbfa1/Runx2 reporter activity ([5]; treatment for 4 days, transient transfection) | Cbfa1/Runx2 gene expression [6] | change of Cbfa1/Runx2 reporter activity [7] | effectiveness in inducing the expression of ALP compared with BMP-4 (C3H10T1/2 cells [8]; C3H10T1/2 cells, FIG. 1) | increase in ALP (C3H10T1/2 cells [8]; after treatment for 4 days, compared with 1% DMSO treatment) | terminal differentiation of MC3T3-E1 cells (MC3T3-E1 cells) | ALP expression level of induced cells compared to cells treated with Compound A (C3H10T1/2 cells [2]; histochemical staining) | induction of ALP expression (3T3-L1 cells; BMP-4 alone) |
| --- | --- | --- | --- | --- | --- | --- | --- | --- | --- | --- | --- | --- | --- | --- | --- | --- |
| induces expression | 1000 nM | c1ccc2c(Oc3nc(Nc4ccc(N5CCOCC5)cc4)c4ncn(C5CCCCC5)c4n3)cccc2c1 [Compound A, 2-(1-Naphthoxy)-6-(4-morpholinoanilino)-9-cyclohexylpurine] | changed from fibroblast (long and spindle-shaped) to osteocyte (small and round) | more than 80% | 9 fold | induces expression of a number of transcription factors and proteins | induces Cbfa1/Runx2 expression | induces Cbfa1 gene upregulation | more than 6 fold | can be induced by Compound A to express the Cbfa1/Runx2 gene | not dramatic | more effective than BMP-4 | > 50 fold | promote the terminal differentiation | – | – |
| – | – | BMP-4: recombinant human bone morphogenetic protein 4 (BMP-4) (Sigma) (protein, UniProt P12644 293-408, looked up) Bone morphogenetic protein 4: SPKHHSQRARKKNKNCRRHSLYVDFSDVGWNDWIVAPPGYQAFYCHGDCPFPLADHLNSTNHAIVQTLVNSVNSSIPKACCVPTELSAISMLYLDEYDKVVLKNYQEMVVEGCGCR | – | 40% | – | – | – | – | – | – | – | – | – | promote the terminal differentiation | higher expression level of ALP | more than 40 fold |
